Structures are written as SMILES. Numbers after ± are expanded uncertainties.

The source of these data is the NIST ThermoML archive (doi:10.1016/j.fluid.2015.09.038).

The conditions of series [1]: Crystal; DTA.
The nature of series [2]: Molar enthalpy of transition or fusion. As to conditions: Crystal; DSC.

With `CCCCCCCCCCCCC1CCCCC1` [dodecylcyclohexane], the Normal melting temperature in series [1] stood at 13.63 ± 2 °C. For the same compound, in series [2], the “Molar enthalpy of transition or fusion” value came out at 10.8 ± 2.17 kcal/mol.
The like results for `CCCCCCCCCCCC(=O)OCC` [ethyl dodecanoate] were, in that order, -0.92 ± 2 °C and 9.15 ± 1.84 kcal/mol.
The like results for `CCCCCCCCCCCCCCCC(=O)OCC` [ethyl hexadecanoate] were, in that order, 24.78 ± 2 °C and 12.7 ± 4.78 kcal/mol.
